Results from PubChem BioAssay AID330 (DTP/NCI, 2004).
“And” between values parts separate entries of the source, which are not always exact repeats. Identical values can stand only once. Inconclusive results and toxic doses are left out.

System: P388 leukemia ip, CD2F1 mice, survival T/C
Assay: NCI In Vivo Anticancer Drug Screen. Data for tumor model P388 Leukemia (intraperitoneal) in CD2F1 (CDF1) mice
Conditions: endpoint: median survival time, higher = longer survival
Method in brief: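 Mice carrying the transplanted tumor received test compound or vehicle. Survival was recorded in each group, and the value is the treated-group measurement divided by that of the vehicle-treated control group.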

[1] = dose: 12.5 mg/kg/injection, schedule: Q01DX009 (ip), vehicle: saline with Tween-80

## c1nc(Sc2ncnc3nc[nH]c23)c2[nH]cnc2n1
dose: 180.0 mg/kg/injection, schedule: Q01DX009 (ip), vehicle: Klucel (hydroxypropylcellulose) (HPC)
  T/C: 100 % of control
dose: 266.0 mg/kg/injection, schedule: Q01DX009 (ip), vehicle: Klucel (hydroxypropylcellulose) (HPC)
  T/C: 100 % of control
dose: 400.0 mg/kg/injection, schedule: Q01DX009 (ip), vehicle: Klucel (hydroxypropylcellulose) (HPC)
  T/C: 100 % of control

## [Mn+2].[NH-]CC(=O)NC(Cc1ccccc1)C(=O)O.[NH-]CC(=O)NC(Cc1ccccc1)C(=O)O (stereo not given)
dose: 100.0 mg/kg/injection, schedule: Q04DX003 (ip), vehicle: saline
  T/C: 113 % of control
dose: 200.0 mg/kg/injection, schedule: Q04DX003 (ip), vehicle: saline
  T/C: 116 % of control

## CC(=O)/C=C/C=C/c1ccc2c(c1)OC(CO)C(c1ccc(O)c(O)c1)O2 (stereo not given)
dose: 50.0 mg/kg/injection, schedule: Q01DX005 (ip), vehicle: Klucel (hydroxypropylcellulose) (HPC)
  T/C: 95 % of control
dose: 100.0 mg/kg/injection, schedule: Q01DX005 (ip), vehicle: Klucel (hydroxypropylcellulose) (HPC)
  T/C: 90 % of control and 95 % of control
dose: 200.0 mg/kg/injection, schedule: Q01DX005 (ip), vehicle: Klucel (hydroxypropylcellulose) (HPC)
  T/C: 87 % of control
dose: 400.0 mg/kg/injection, schedule: Q01DX005 (ip), vehicle: Klucel (hydroxypropylcellulose) (HPC)
  T/C: 87 % of control

## CCn1c(=O)n(Cc2ccccc2)c(=O)c2ccccc21
dose: 60.0 mg/kg/injection, schedule: Q01DX005 (ip), vehicle: saline with Tween-80
  T/C: 93 % of control
dose: 120.0 mg/kg/injection, schedule: Q01DX005 (ip), vehicle: saline with Tween-80
  T/C: 93 % of control
dose: 240.0 mg/kg/injection, schedule: Q01DX005 (ip), vehicle: saline with Tween-80
  T/C: 91 % of control

## CC(NC(=O)C(N)CCC(=O)O)C(=O)O (stereo not given)
dose: 50.0 mg/kg/injection, schedule: Q01DX005 (ip), vehicle: saline
  T/C: 103 % of control
dose: 100.0 mg/kg/injection, schedule: Q01DX005 (ip), vehicle: saline
  T/C: 100 % of control
dose: 200.0 mg/kg/injection, schedule: Q01DX005 (ip), vehicle: saline
  T/C: 107 % of control

## O=C(O)CCCC(C(=O)O)N1C(=O)c2ccccc2C1=O (stereo not given)
dose: 50.0 mg/kg/injection, schedule: Q01DX005 (ip), vehicle: saline with Tween-80
  T/C: 94 % of control
dose: 100.0 mg/kg/injection, schedule: Q01DX005 (ip), vehicle: saline with Tween-80
  T/C: 93 % of control
dose: 200.0 mg/kg/injection, schedule: Q01DX005 (ip), vehicle: saline with Tween-80
  T/C: 87 % of control

## Cc1cc2cc(C3CCNCC3)oc2cc1C
dose: 12.5 mg/kg/injection, schedule: Q01DX009 (ip), vehicle: Klucel (hydroxypropylcellulose) (HPC)
  T/C: 100 % of control
dose: 25.0 mg/kg/injection, schedule: Q01DX009 (ip), vehicle: Klucel (hydroxypropylcellulose) (HPC)
  T/C: 100 % of control and 109 % of control
dose: 50.0 mg/kg/injection, schedule: Q01DX009 (ip), vehicle: Klucel (hydroxypropylcellulose) (HPC)
  T/C: 107 % of control and 109 % of control and 119 % of control

## C=CCC(C(=O)OC)c1ccc(F)cc1 (stereo not given)
dose: 0.06 mg/kg/injection, schedule: Q01DX009 (ip), vehicle: saline
  T/C: 111 % of control
dose: 0.13 mg/kg/injection, schedule: Q01DX009 (ip), vehicle: saline
  T/C: 102 % of control
dose: 0.25 mg/kg/injection, schedule: Q01DX009 (ip), vehicle: saline
  T/C: 101 % of control
dose: 1.0 mg/kg/injection, schedule: Q01DX009 (ip), vehicle: saline
  T/C: 88 % of control

## COc1cccc2c1C(=O)c1c(O)c3c(c(O)c1C2=O)C[C@@](O)(/C(C)=N/NC(=O)c1ccc(-c2ccccc2)cc1)C[C@@H]3OC1CC(N)C(O)C(C)O1 (stereo not given in full)
dose: 0.12 mg/kg/injection, schedule: Q01DX009 (ip), vehicle: water
  T/C: 107 % of control
dose: 0.5 mg/kg/injection, schedule: Q01DX009 (ip), vehicle: water
  T/C: 151 % of control
dose: 1.0 mg/kg/injection, schedule: Q01DX009 (ip), vehicle: water
  T/C: 157 % of control
dose: 2.0 mg/kg/injection, schedule: Q01DX009 (ip), vehicle: water
  T/C: 163 % of control and 169 % of control
dose: 3.13 mg/kg/injection, schedule: Q01DX009 (ip), vehicle: water
  T/C: 192 % of control
dose: 4.0 mg/kg/injection, schedule: Q01DX009 (ip), vehicle: water
  T/C: 190 % of control
dose: 6.0 mg/kg/injection, schedule: Q04DX003 (ip), vehicle: water
  T/C: 106 % of control
dose: 6.25 mg/kg/injection, schedule: Q01DX001 (ip), vehicle: water
  T/C: 151 % of control
dose: 6.25 mg/kg/injection, schedule: Q01DX009 (ip), vehicle: water
  T/C: 109 % of control
dose: 8.0 mg/kg/injection, schedule: Q01DX009 (ip), vehicle: water
  T/C: 98 % of control and 91 % of control
dose: 12.5 mg/kg/injection, schedule: Q01DX001 (ip), vehicle: water
  T/C: 163 % of control
dose: 24.0 mg/kg/injection, schedule: Q04DX003 (ip), vehicle: water
  T/C: 165 % of control
dose: 25.0 mg/kg/injection, schedule: Q01DX001 (ip), vehicle: water
  T/C: 116 % of control
dose: 96.0 mg/kg/injection, schedule: Q04DX003 (ip), vehicle: water
  T/C: 98 % of control

## CC(=O)NC(N)=NC#N
dose: 50.0 mg/kg/injection, schedule: Q01DX001 (ip), vehicle: saline
  T/C: 98 % of control
dose: 100.0 mg/kg/injection, schedule: Q01DX001 (ip), vehicle: saline
  T/C: 100 % of control
dose: 200.0 mg/kg/injection, schedule: Q01DX001 (ip), vehicle: saline
  T/C: 96 % of control
dose: 400.0 mg/kg/injection, schedule: Q01DX001 (ip), vehicle: saline
  T/C: 103 % of control

## CCCCCCCCCCCCCCCCNCC(O)CN (stereo not given)
dose: 3.13 mg/kg/injection, schedule: Q01DX009 (ip), vehicle: saline with Tween-80
  T/C: 102 % of control
dose: 6.25 mg/kg/injection, schedule: Q01DX009 (ip), vehicle: saline with Tween-80
  T/C: 96 % of control
[1]
  T/C: 88 % of control

## CC(C)N1C(=O)C=C(c2ccc([N+](=O)[O-])cc2)C1=O
[1]
  T/C: 105 % of control
dose: 25.0 mg/kg/injection, schedule: Q01DX009 (ip), vehicle: saline with Tween-80
  T/C: 105 % of control
dose: 50.0 mg/kg/injection, schedule: Q01DX009 (ip), vehicle: saline with Tween-80
  T/C: 106 % of control

## COC(=O)C[n+]1ccc2ccccc2c1
dose: 50.0 mg/kg/injection, schedule: Q01DX009 (ip), vehicle: saline
  T/C: 99 % of control
dose: 100.0 mg/kg/injection, schedule: Q01DX009 (ip), vehicle: saline
  T/C: 99 % of control
dose: 200.0 mg/kg/injection, schedule: Q01DX009 (ip), vehicle: saline
  T/C: 95 % of control

## COc1ccc(CC2=CC(=O)C(C)=CC2=O)cc1
dose: 6.25 mg/kg/injection, schedule: Q01DX005 (ip), vehicle: saline with Tween-80
  T/C: 98 % of control
dose: 12.5 mg/kg/injection, schedule: Q01DX005 (ip), vehicle: saline with Tween-80
  T/C: 91 % of control
dose: 25.0 mg/kg/injection, schedule: Q01DX005 (ip), vehicle: saline with Tween-80
  T/C: 97 % of control
